From patent publication US20130041005A1, “PHARMACEUTICAL COMPOSITIONS COMPRISING NEUROPILIN INHIBITORS, AND THEIR USE FOR THE PREVENTION AND/OR TREATMENT OF ANGIOGENIC DISORDERS AND CANCERS” (TRAGEX PHARMA, priority 2011, published 2013) come the findings set out here.

The inhibition is the percentage by which the read-out fell short of the control. A high value points to a response far below the control. Usually IC50 stands for the concentration that gives 50% inhibition.

“Also recorded” adds a separate entry of the source.

Assay [1] has as its system U87 glioblastoma. As to the kind of experiment: WST-1 proliferation assay, U87. Type of assay: cell-based. To be noted: Homo sapiens. Background: Tetrazolium dyes change colour on reduction, which living cells bring about.
Assay [2] deals with HeLa. As to the kind of experiment: WST-1 proliferation assay, HeLa. The class given is cell-based. To be noted: Homo sapiens; for IC50: Cervical HeLa, 72 h, read-out: Anti-proliferative activity IC50 (μM) ± SD; for inhibition at 0.1 µM / inhibition at 0.5 µM / inhibition at 1 µM: HeLa. From the text:
(§1) Several cancer cell lines were used: breast cancer cells (MDA-MB-231 (ATTCC® Number HTB-26™), MDA-MB-436 (ATTCC® Number HTB-130™), MDA-MB-438, BT-474 (ATTCC® Number HTB-20™)); cervical cancer cells (HeLa (ATTCC® Number CCL-2™)); colon cancer cells (HCT-116 (ATTCC® Number CCL-247™) and HT-29 (ATTCC® Number HTB-38™)); osteosarcoma cells (U2OS (ATTCC® Number HTB-96™)); pancreas cancer cells (MIA PaCa-2 (ATTCC® Number CRL-1420™) and Panc-10.5 (ATTCC® Number CRL-2547™)); prostate cancer cells (PC-3 (ATTCC® Number CRL-1435™) and LNCaP (ATTCC® Number CRL-1740™)); brain cancer cells (U87 glioblastoma (ATTCC® Number HTB-14™) and SH-SYSY neuroblastoma (ATTCC® Number CRL-2266™)).
(§2) All the cancer cell lines were maintained in cultured in DMEM GlutaMAX™ (GIBCO Invitrogen, France, cat no 31966047) enhanced with 10% foetal bovine serum (GIBCO Invitrogen, France, cat no 10270-106) and 1% penicillin G/streptomycin (GIBCO Invitrogen, France, cat no 15140-122). Only Panc-10.5 cells were cultivated in RPMI 1640 medium (Gibco) supplemented with 2 mM L-glutamine, 1.5 g/L sodium bicarbonate, 4.5 g/L glucose, 10 mM HEPES, 1 mM sodium pyruvate, 10 Units/ml human insulin, […] (SVF): 15% (75 ml in 500 ml of medium).
(§3) Cells were grown as subconfluent monolayer and cultured in 75 cm^2 flasks at 37° C., 5% CO2 in a humidified atmosphere, and medium was changed every two days. Only cells from passages 2-6 were used for the experiments.
(§4) After observation of cells under the microscope, old media were removed and the adherent cells washed gently twice with PBS (Phosphate Buffer Saline, —Ca^2+, —Mg^2+, Lonza cat no: 17-512F/12). All cells were detached with 3 ml of trypsin/EDTA (chelator of calcium and magnesium ions) (Lonza), incubated for 5 min at 37° C., and examined using a microscope to ensure that the cells were detached and floating. Then, 3 ml TNS (Trypsin Neutralizing Solution, Lonza, France, cat no CC-5002) or of culture medium were added to inactivate the trypsin, and the cell suspension was transferred in a falcon and centrifuged for 7 min at 1400 rpm. The supernatant was removed and the cell pellet resuspended in […] of culture medium. 50 μl of this solution were transferred in 20 μl of isotonic solution and the cells were counted by count cellular (Beckman Coulter). At day 0, 200 μl of cellular suspension (3.10^3 cells/well for the HUVEC cells, breast cancer cells (MDA-MB-231 1.10^4 cells/well, MDA-MB-436 1.10^4 cells/well, MDA-MB-438 2.10^4 cells/well, BT-474 2.5.10^4 cells/well); cervical cancer cells (HeLa 5.000 cells/well); colon cancer cells (HCT-116 5.10^3 cells/well, HCT-29 1.1.10^4 cells/well); osteosarcoma cells (U2OS 8.10^3 cells/well); pancreas cancer cells (MIA PaCa-2 5.10^3 cells/well, Panc-10.5 1.5.10^4 cells/well); prostate cancer cells (PC-3 4.10^3 cells/well, LNCaP 2.10^4 cells/well); brain cancer cells (U87 5.10^3 cells/well, SH-SYSY 8.10^4 cells/well)) were then plated on 96 well plates and incubated at 37° C. in a humidified atmosphere of 5% CO2 for 24 h.
(§5) At day 1, the compounds 1 or 2 of the invention were added at increasing concentrations (0.1-10 μM) in the wells and plates were incubated at 37° C. in a humidified atmosphere of 5% CO2 for 72 h.
(§6) The cell proliferation WST-1 assay is a colorimetric assay for the quantification of cell proliferation and viability, based on the enzymatic cleavage of the tetrazolium salt WST-1 added to the culture medium, to a water soluble colored formazan dye, detected by absorbance at 450 nm, by mitochondrial succinate-tetrazolium reductase in viable cells. An augmentation in enzyme activity will then lead to an increase in the amount of formazan dye formed, which directly correlates to the number of metabolically active cells in the culture.
(§7) After an incubation period of 72 h, at day 4, were prepared the 19 ml medium with reagent WST-1 1 ml ([…]). The medium was removed from the 96 microplate and 200 μl of solution WST-1/medium were added for each well. […]

Assay [3] deals with breast cancer cells (MDA-MB-231). Description: Apoptosis assay (Annexin V-FITC/PI), MDA-MB-231. Type of assay: cell-based, Human. To be noted: IC50 concentration, 72 h (FIG. 5B). On the procedure:
The level of apoptosis in endothelial (HUVEC) and breast cancer cells (MDA-MB-231) was detected by Annexin V-FITC Apoptosis Detection Kit (ref 556547, BD Biosciences, France) according to the manufacturer's instructions. Briefly, HUVEC and MDA-MB-231 cells were treated separately with DMSO (control) and the compounds of the invention at the concentration corresponding to the IC50, obtained by the proliferation assay, for 72 h. After treatment, all cell including both detached and attached cells were collected, centrifugated at 14000 rpm for 5 min and the apoptotic cells were detected by staining with Annexin V-FITC and (propidium iodide) PI. The cells were resuspended in 100 μl Annexin V binding buffer (10 mM Hepes/NaOH, pH 7.4, 140 mM NaCl, […]) containing 5 μl of Annexin V-FITC and 5 μl of PI (propidium iodide). Samples were gently mixed and incubated for 2 h on ice and in the dark. Viable and apoptotic cell were detected by flow citometry (FACS Calibur Becton Dickinson, France). Apoptotic cells include both the early apoptotic portion (Annexin V-positive) and the late apoptotic portion (Annexin V- and PI-positive). Staurosporine is used as a positive control of apoptosis induction.

Assay [4] deals with Panc-10.5. Description: WST-1 proliferation assay, Panc-10.5. Type of assay: cell-based. The conditions noted are these: Homo sapiens; PANC - 10.5, 0.05 μM.
Assay [5] deals with PC-3. As to the kind of experiment: WST-1 proliferation assay, PC-3. The class given is cell-based. To be noted: Homo sapiens; for inhibition at 0.1 µM: PC-3, 0.1 μM; for inhibition at 0.5 µM: PC-3, 0.5 μM; for inhibition at 1 µM: PC-3, 1 μM; for IC50: Prostate PC-3, 72 h, read-out: Anti-proliferative activity IC50 (μM) ± SD.
Description: as §1, §2, §3, §4, §5, §6, §7

`Cc1ccc(-c2nc3ccccc3[nH]2)cc1NC(=S)NC(=O)c1ccc2c(c1)OCCO2` [Compound 1, N-[5-(1H-benzimidazol-2-yl)-2-methylphenyl]-N′-(2,3-dihydro-1,4-benzodioxin-6-ylcarbonyl)thiourea] displayed an inhibition at 0.05 µM in assay [1] of 0%. In assay [2], the 50% inhibitory concentration (IC50) is 0.4 ± 0.04 µM, at 0.1 µM the inhibition was 13%, the inhibition at 0.5 µM was 64% and the inhibition at 1 µM was found to be 68%. Besides, the “induction of apoptosis in cancer cells” value in assay [3] is given as “induced the apoptosis; also recorded: induction of apoptosis”. Also, in assay [4], the inhibition at 0.05 µM was 18%. Further, in assay [5], testing at 0.1 µM gave an inhibition of 3%, at 0.5 µM the inhibition was 25%, testing at 1 µM gave an inhibition of 47% and the IC50 is 1.7 ± 0.04 µM.
In assay [1], `O=C(NC(=S)Nc1cccc(-c2nc3ccccc3[nH]2)c1)c1ccc2c(c1)OCCO2` [Compound 2, N-[3-(1H-benzimidazol-2-yl)phenyl]-N′-(2,3-dihydro-1,4-benzodioxin-6-ylcarbonyl)thiourea] had an inhibition at 0.05 µM of 19%. In addition, in assay [2], the IC50 was 0.05 ± 0.04 µM, the inhibition at 0.1 µM was determined as 62%, 0.5 µM produced 64% inhibition and the inhibition at 1 µM was 67%. For the same molecule, the “induction of apoptosis in cancer cells” value in assay [3] is recorded as “induced the apoptosis; also recorded: induction of apoptosis”. The molecule also gave an inhibition at 0.05 µM in assay [4] of 35%. In assay [5], the inhibition at 0.1 µM came to 29%, at 0.5 µM the inhibition was 46%, testing at 1 µM gave an inhibition of 46% and the concentration for half-maximal inhibition (IC50) turned out to be 1.5 ± 0.12 µM.
